# Patent US20230145305A1, “COMPOUNDS USEFUL AS KINASE INHIBITORS” (Fochon Biosciences, Ltd., priority 2020, published 2023)
# Tested on: OCI-LY10 cells
# Test: Cell proliferation assay (MTS) in OCI-LY10 cells
# Assay type: cell-based
# Settings: Homo sapiens, OCI-Ly10, 72 h, read-out: OCI-LY10 IC50 (nM)
# Source text: MTS testing kit was purchased from Promega (Madison, Wis., USA). The RPMI-1640, Fetal bovine serum and Penicillin-Streptomycin were purchased from BI (Biological Industries, Beit Haemek, Israel). Dimethyl sulfoxide (DMSO) was purchased from Sigma (St. Louis., Mo., USA). […] To investigate whether a compound is able to inhibit the activity of BTK in cells, a mechanism-based assay using OCI-LY10 cells was developed. In this assay, inhibition of BTK was detected by the inhibition of OCI-LY10 cells proliferation. Cells were plated into 96-well plates at a density of 10000 cells/well. Plates were incubated at 37° C., with 5% CO2 for 4 h. […] Plates were incubated at 37° C., with 5% CO2 for 72 h. 20 μl MTS was added into each well and the plates were incubated at 37° C., with 5% CO2 for exactly 2 h. The absorbance was measured by a microplate reader at 490 nm. IC50 was calculated using GraphPad Prism 5.0 software. Select compounds prepared as described above were assayed according to the biological procedures described herein.
row,Structure (SMILES),IC50
1,"COc1ccc(F)cc1C(=O)NCc1ccc(-c2nc(C3CCCC3)n3ncnc(N)c23)cc1 [Example 12, N-(4-(4-amino-7-cyclopentylimidazo [5,1-f][1,2,4]triazin-5-yl)benzyl)-5-fluoro-2-methoxybenzamide]",9 nM

# Same assay, conditions: Homo sapiens; inhibition of OCI-LY10 cells proliferation, 72 h incubation, MTS, absorbance at 490 nm; read-out: OCI-LY10 IC50
row,Structure (SMILES),IC50
1,COc1ccc(F)cc1C(=O)NCc1ccc(-c2cn(C3CC(F)(F)C3)c3c(=O)[nH]nc(N)c23)cn1 [Example 55],28 nM
2,"COc1ccc(F)cc1C(=O)NCc1ccc(-c2cn(C3CCCC3(C)O)c3c(=O)[nH]nc(N)c23)cc1 (stereo not shown) [Example 38, N-(4-(4-amino-1-(2-hydroxy-2-methylcyclopentyl)-7-oxo-6,7-dihydro-1H-pyrrolo[2,3-d]pyridazin-3-yl)benzyl)-5-fluoro-2-methoxybenzamide]",35 nM
3,"COc1ccc(F)cc1C(=O)NCc1ccc(-n2nc(C3CC3(F)F)c3c(=O)[nH]nc(N)c32)cc1 (stereo not shown) [Example 99, N-(4-(7-amino-3-(2,2-difluorocyclopropyl)-4-oxo-4,5-dihydro-1H-pyrazolo[3,4-d]pyridazin-1-yl)benzyl)-5-fluoro-2-methoxybenzamide]",65 nM
4,"COc1ccc(F)cc1C(=O)NCc1ccc(-n2c(=O)n(C3CCCC3)c3c(=O)[nH]nc(N)c32)cc1 [Example 60, N-(4-(7-amino-3-cyclopentyl-2,4-dioxo-2,3,4,5-tetrahydro-1H-imidazo[4,5-d]pyridazin-1-yl)benzyl)-5-fluoro-2-methoxybenzamide]",30 nM
5,"COc1ccc(F)cc1C(=O)NCc1ccc(-c2nn(C(C)(C)C(F)F)c3c(=O)[nH]nc(N)c23)cc1 [Example 85, N-(4-(4-amino-1-(1,1-difluoro-2-methylpropan-2-yl)-7-oxo-6,7-dihydro-1H-pyrazolo[3,4-d]pyridazin-3-yl)benzyl)-5-fluoro-2-methoxybenzamide]",18 nM
6,"COc1ccc(F)cc1C(=O)NCc1ccc(-n2nc(C(C)C(F)(F)F)c3c(=O)[nH]nc(N)c32)cc1 (stereo not shown) [Example 41, N-(4-(7-amino-4-oxo-3-(1,1,1-trifluoropropan-2-yl)-4,5-dihydro-1H-pyrazolo[3,4-d]pyridazin-1-yl)benzyl)-5-fluoro-2-methoxybenzamide]",18 nM
7,"COc1ccc(F)cc1C(=O)NCc1ccc(-n2c(=O)n(C3CCCC3)c3ccnc(N)c32)cc1 [Example 22, N-(4-(4-amino-1-cyclopentyl-2-oxo-1,2-dihydro-3H-imidazo[4,5-c]pyridin-3-yl)benzyl)-5-fluoro-2-methoxybenzamide]",44 nM
8,"COc1ccc(F)cc1C(=O)NCc1ccc(-n2nc(C3CC(F)(F)C3)c3c(=O)[nH]nc(N)c32)cc1 [Example 97, N-(4-(7-amino-3-(3,3-difluorocyclobutyl)-4-oxo-4,5-dihydro-1H-pyrazolo[3,4-d]pyridazin-1-yl)benzyl)-5-fluoro-2-methoxybenzamide]",23 nM
9,"COc1ccc(F)cc1C(=O)NCc1ccc(-c2cn(C3CCCC3)c3c(=O)[nH]nc(N)c23)cn1 [Example 45, N-((5-(4-amino-1-cyclopentyl-7-oxo-6,7-dihydro-1H-pyrrolo[2,3-d]pyridazin-3-yl)pyridin-2-yl)methyl)-5-fluoro-2-methoxybenzamide]",32 nM
10,"CCC(C)c1nn(-c2ccc(CNC(=O)c3cc(F)ccc3OC)cc2)c2c(N)n[nH]c(=O)c12 (stereo not shown) [Example 92a, N-(4-(7-amino-3-(sec-butyl)-4-oxo-4,5-dihydro-1H-pyrazolo[3,4-d]pyridazin-1-yl)benzyl)-5-fluoro-2-methoxybenzamide]",10 nM
11,"COc1ccc(F)cc1C(=O)NCc1ccc(-c2nn(C(CO)C(F)(F)F)c3c(=O)[nH]nc(N)c23)cc1 (stereo not shown) [Example 78, N-(4-(4-amino-7-oxo-1-(1,1,1-trifluoro-3-hydroxypropan-2-yl)-6,7-dihydro-1H-pyrazolo[3,4-d]pyridazin-3-yl)benzyl)-5-fluoro-2-methoxybenzamide]",26 nM
12,"COc1ccc(F)cc1C(=O)NCc1ccc(-c2cn([C@@H]3CCN(C(=O)N4CCC4)C3)c3c(=O)[nH]nc(N)c23)cc1 [Example 107, (R)-N-(4-(4-amino-1-(1-(azetidine-1-carbonyl)pyrrolidin-3-yl)-7-oxo-6,7-dihydro-1H-pyrrolo[2,3-d]pyridazin-3-yl)benzyl)-5-fluoro-2-methoxybenzamide]",11 nM
13,"COc1ccc(F)cc1C(=O)NCc1ccc(-c2cn([C@@H]3C[C@@H]3F)c3c(=O)[nH]nc(N)c23)cc1F [Example 59, N-(4-(4-amino-1-((1R,2S)-2-fluorocyclopropyl)-7-oxo-6,7-dihydro-1H-pyrrolo[2,3-d]pyridazin-3-yl)-2-fluorobenzyl)-5-fluoro-2-methoxybenzamide]",62 nM

# Other lines, results leading:
row,IC50,Structure (SMILES)
1,3 nM,"COc1ccc(F)cc1C(=O)NCc1ccc(-c2nn(C3(CF)CC3)c3c(=O)[nH]nc(N)c23)cc1 [Example 82, N-(4-(4-amino-1-(1-(fluoromethyl)cyclopropyl)-7-oxo-6,7-dihydro-1H-pyrazolo[3,4-d]pyridazin-3-yl)benzyl)-5-fluoro-2-methoxybenzamide]"
2,1 nM,"COc1ccc(F)cc1C(=O)NCc1ccc(-n2cc(C3CCCCC3)c3c(=O)[nH]nc(N)c32)cc1 [Example 27, N-(4-(7-amino-3-cyclohexyl-4-oxo-4,5-dihydro-1H-pyrrolo[2,3-d]pyridazin-1-yl)benzyl)-5-fluoro-2-methoxybenzamide]"
3,1 nM,"COc1ccc(F)cc1C(=O)NCc1ccc(-n2nc(C(C)(C)C)c3c(=O)[nH]nc(N)c32)cc1 [Example 94, N-(4-(7-amino-3-(tert-butyl)-4-oxo-4,5-dihydro-1H-pyrazolo[3,4-d]pyridazin-1-yl)benzyl)-5-fluoro-2-methoxybenzamide]"
4,4 nM,"COc1ccc(F)cc1C(=O)NCc1ccc(-c2cn([C@@H]3CCN(C(=O)OC(C)C)C3)c3c(=O)[nH]nc(N)c23)cc1 [Example 105, isopropyl (R)-3-(4-amino-3-(4-((5-fluoro-2-methoxybenzamido)methyl)phenyl)-7-oxo-6,7-dihydro-1H-pyrrolo[2,3-d]pyridazin-1-yl)pyrrolidine-1-carboxylate]"
5,5 nM,"COc1ccc(F)cc1C(=O)NCc1ccc(-c2nn(C(C)C(C)C)c3c(=O)[nH]nc(N)c23)cc1 (stereo not shown) [Example 69, N-(4-(4-amino-1-(3-methylbutan-2-yl)-7-oxo-6,7-dihydro-1H-pyrazolo[3,4-d]pyridazin-3-yl)benzyl)-5-fluoro-2-methoxybenzamide]"
6,1 nM,"COc1ccc(F)cc1C(=O)NCc1ccc(-c2nn([C@H]3CCCC3(F)F)c3c(=O)[nH]nc(N)c23)cc1 [Example 64, (S)-N-(4-(4-amino-1-(2,2-difluorocyclopentyl)-7-oxo-6,7-dihydro-1H-pyrazolo[3,4-d]pyridazin-3-yl)benzyl)-5-fluoro-2-methoxybenzamide]"
7,2 nM,"COc1ccc(F)cc1C(=O)NCc1ccc(-c2nn(C(C)C)c3c(=O)[nH]nc(N)c23)cc1 [Example 68, N-(4-(4-amino-1-isopropyl-7-oxo-6,7-dihydro-1H-pyrazolo[3,4-d]pyridazin-3-yl)benzyl)-5-fluoro-2-methoxybenzamide]"
8,3 nM,"COc1ccc(F)cc1C(=O)NCc1ccc(-c2cn(C3CC(F)(F)C3)c3c(=O)[nH]nc(N)c23)cc1F [Example 56, N-(4-(4-amino-1-(3,3-difluorocyclobutyl)-7-oxo-6,7-dihydro-1H-pyrrolo[2,3-d]pyridazin-3-yl)-2-fluorobenzyl)-5-fluoro-2-methoxybenzamide]"
9,9 nM,"COc1ccc(F)cc1C(=O)NCc1ccc(-c2cn(C3CCOCC3)c3c(=O)[nH]nc(N)c23)cc1 [Example 37, N-(4-(4-amino-7-oxo-1-(tetrahydro-2H-pyran-4-yl)-6,7-dihydro-1H-pyrrolo [2,3-d]pyridazin-3-yl)benzyl)-5-fluoro-2-methoxybenzamide]"
10,1 nM,"COc1ccc(F)cc1C(=O)NCc1ccc(-c2cn(C3CCCCC3)c3c(=O)[nH]nc(N)c23)cc1 [Example 35, N-(4-(4-amino-1-cyclohexyl-7-oxo-6,7-dihydro-1H-pyrrolo[2,3-d]pyridazin-3-yl)benzyl)-5-fluoro-2-methoxybenzamide]"
11,1 nM,"CCC(C)n1nc(-c2ccc(CNC(=O)c3cc(F)ccc3OC)cc2)c2c(N)n[nH]c(=O)c21 (stereo not shown) [Example 67, N-(4-(4-amino-1-(sec-butyl)-7-oxo-6,7-dihydro-1H-pyrazolo[3,4-d]pyridazin-3-yl)benzyl)-5-fluoro-2-methoxybenzamide]"
